The IC50 is the midpoint of a concentration-inhibition curve. A low value points to inhibition by little substance.

The values that follow come from ChEMBL document CHEMBL1138029, “Identification of neutral 4-O-alkyl quinolone nonpeptide GnRH receptor antagonists” (Bioorg Med Chem Lett, 2004).

In assay [1] the target is T1, Gonadotropin-releasing hormone receptor (Homo sapiens, UniProt P30968).
T1 sequence (P30968 whole entry): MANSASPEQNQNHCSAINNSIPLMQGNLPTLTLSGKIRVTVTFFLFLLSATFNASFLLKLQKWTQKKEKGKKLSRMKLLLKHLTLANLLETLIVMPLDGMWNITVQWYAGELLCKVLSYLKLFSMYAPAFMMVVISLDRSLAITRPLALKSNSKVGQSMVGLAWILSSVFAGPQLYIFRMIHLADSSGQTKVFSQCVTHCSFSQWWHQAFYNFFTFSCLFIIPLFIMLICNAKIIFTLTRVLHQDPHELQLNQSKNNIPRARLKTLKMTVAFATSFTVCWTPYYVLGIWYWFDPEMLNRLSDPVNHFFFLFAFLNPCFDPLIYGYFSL
Kind of assay: Inhibition of GnRH-stimulated phosphatidyl inositol hydrolysis in CHO cells expressing GnRH receptor. It is filed as functional, cell-based.

In assay [2] the target is T1, Gonadotropin-releasing hormone receptor. As to the kind of experiment: Binding affinity towards human gonadotropin releasing hormone receptor expressed in CHO cells was determined by using [125I]-buserelin as radioligand. It is filed as cell-based.

`Cc1cc(-c2c(OCC[C@@H]3CCN3)c3cc(C(=O)Nc4ccncn4)c(Cl)cc3[nH]c2=O)cc(C)c1C` had an IC50 in assay [1] of 0.9 nM.

Regarding `Cc1cc(-c2c(O)nc3cc(Cl)c(C(=O)Nc4cnsn4)cc3c2OCCC2OCCO2)cc(C)c1C`, the IC50 in assay [2] worked out at 0.6 nM; in assay [1], 67 nM.

Take `Cc1cc(-c2c(O)nc3cc(Cl)c(C(=O)Nc4ccncn4)cc3c2OCC[C@@H]2CCCN2)cc(C)c1C`: the IC50 in assay [2] was 0.8 nM; in assay [1], 2.2 nM.

Regarding `Cc1cc(-c2c(OCC[C@@H]3CCCCN3)c3cc(C(=O)Nc4ccncn4)c(Cl)cc3[nH]c2=O)cc(C)c1C`, the concentration for half-maximal inhibition (IC50) in assay [1] was found to be 2.2 nM.

On to `Cc1cc(-c2c(OCC[C@@H]3CCCCN3)c3cc(C(=O)Nc4cnsn4)c(Cl)cc3[nH]c2=O)cc(C)c1C`, for which the results for the IC50 in assay [2] and in assay [1] were 0.55 nM and 1.6 nM, respectively.

Regarding `Cc1cc(-c2c(OCCC3CCCO3)c3cc(C(=O)Nc4ccncn4)c(Cl)cc3[nH]c2=O)cc(C)c1C` (stereo not given), the results for the IC50 in assay [2] and in assay [1] were 0.6 nM and 3.3 nM, respectively.

For the compound `Cc1cc(-c2c(O)nc3cc(Cl)c(C(=O)Nc4cnsn4)cc3c2OCC[C@H]2CCO2)cc(C)c1C`, the half-inhibitory concentration (IC50) in assay [2] came to 0.9 nM; in assay [1] it was 49 nM.

For the compound `Cc1cc(-c2c(OCC[C@@H]3CCN3)c3cc(C(=O)Nc4cnsn4)c(Cl)cc3[nH]c2=O)cc(C)c1C`, the figures for the IC50 in assay [2] and in assay [1] were 0.32 nM and 0.8 nM, respectively.

As to `Cc1cc(-c2c(O)nc3cc(Cl)c(C(=O)Nc4cnsn4)cc3c2OCC[C@H]2CCC(=O)N2)cc(C)c1C`, the IC50 in assay [2] was 0.3 nM; in assay [1], 0.7 nM.

With `Cc1cc(-c2c(O)nc3cc(Cl)c(C(=O)Nc4cnsn4)cc3c2OCC[C@H]2CCC(=O)N2C)cc(C)c1C`, the IC50 was determined as 1.4 nM in assay [2] and 11 nM in assay [1].

With `Cc1cc(-c2c(OCCC3COCCN3)c3cc(C(=O)Nc4cnsn4)c(Cl)cc3[nH]c2=O)cc(C)c1C` (stereo not given), the IC50 in assay [2] was found to be 0.7 nM; in assay [1] it was 32 nM.

With `Cc1cc(-c2c(O)nc3cc(Cl)c(C(=O)Nc4ccncn4)cc3c2OCC[C@@H]2CCC[C@H](C(F)(F)F)N2C)cc(C)c1C`, the figures for the IC50 in assay [2] and in assay [1] were 2 nM and 18 nM, respectively.

`Cc1cc(-c2c(OCC[C@H]3CC(=O)N3)c3cc(C(=O)Nc4cnsn4)c(Cl)cc3[nH]c2=O)cc(C)c1C`: the IC50 in assay [2] worked out at 0.1 nM; in assay [1], 1.3 nM.

On to `Cc1cc(-c2c(O)nc3cc(Cl)c(C(=O)Nc4ccncn4)cc3c2OCC[C@@H]2CCC[C@H](C(F)(F)F)N2)cc(C)c1C`, for which the IC50 stood at 2 nM in assay [2] and 18 nM in assay [1].

Regarding `Cc1cc(-c2c(O)nc3cc(Cl)c(C(=O)Nc4cnsn4)cc3c2OCCC2CCCC2)cc(C)c1C`, the results for the half-maximal inhibitory concentration (IC50) in assay [2] and in assay [1] were 243 nM and 1150 nM, respectively.

Turning to `Cc1cc(-c2c(OCCC3CC4CCN3CC4)c3cc(C(=O)Nc4cnsn4)c(Cl)cc3[nH]c2=O)cc(C)c1C` (stereo not given), the IC50 in assay [2] was determined as 0.6 nM; in assay [1], 5.8 nM.
